Data as given in patent publication US11951094B2, “TLR2 modulator compounds, pharmaceutical compositions and uses thereof” (Axial Therapeutics, Inc., priority 2020, dated 2024).

These compounds were tested against TLR2 (Homo sapiens, UniProt O60603) (assay: TLR2 agonist screening assay, HEK-Blue TLR2 reporter cell line (NF-kB-driven SEAP, absorbance at 600 nm)). Conditions: HEK-Blue TLR2 reporter cells, agonist mode; average of all runs (Table 3).
Type: cell-based
Parameters: host or cells: HEK-293 (HEK-Blue TLR2 reporter cell line)
In short: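 Read-out: SEAP colour change, A600, after overnight agonist exposure. Cells: HEK-293 overexpressing TLR2, NF-kB-SEAP reporter, ~40,000/well, plated 16-24 h prior.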

Chain of TLR2 (O60603 21-784): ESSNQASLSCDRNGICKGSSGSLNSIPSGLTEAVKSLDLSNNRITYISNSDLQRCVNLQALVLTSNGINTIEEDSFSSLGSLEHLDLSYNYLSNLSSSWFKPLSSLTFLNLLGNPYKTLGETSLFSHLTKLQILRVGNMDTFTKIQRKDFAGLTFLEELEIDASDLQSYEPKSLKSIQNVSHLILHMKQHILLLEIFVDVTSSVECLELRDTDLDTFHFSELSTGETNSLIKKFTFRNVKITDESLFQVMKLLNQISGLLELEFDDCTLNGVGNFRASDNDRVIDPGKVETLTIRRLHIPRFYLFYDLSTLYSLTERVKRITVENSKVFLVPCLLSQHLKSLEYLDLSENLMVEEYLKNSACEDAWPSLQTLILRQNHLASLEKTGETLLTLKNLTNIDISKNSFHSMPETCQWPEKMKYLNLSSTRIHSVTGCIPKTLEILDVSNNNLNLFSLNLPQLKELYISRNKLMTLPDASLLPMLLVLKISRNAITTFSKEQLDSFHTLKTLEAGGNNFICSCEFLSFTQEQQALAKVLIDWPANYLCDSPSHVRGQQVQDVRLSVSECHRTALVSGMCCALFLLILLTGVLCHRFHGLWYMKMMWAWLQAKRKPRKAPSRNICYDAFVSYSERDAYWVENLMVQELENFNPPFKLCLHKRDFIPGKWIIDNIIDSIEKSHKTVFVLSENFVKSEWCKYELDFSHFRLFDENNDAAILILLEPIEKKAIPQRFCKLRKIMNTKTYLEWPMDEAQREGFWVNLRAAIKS

Compound | EC50
CCCCCCCCCCCCCCNC(=O)[C@H]1CCN(C(=O)c2ccc(C(=O)N3C[C@@H](C(=O)N[C@H]4C[C@@H]4c4ccccc4)[C@H](C(=O)N[C@H]4C[C@@H]4c4ccccc4)C3)cc2)C1 [Compound 004] | 0.1 to 50 nM
CCCCCCCCOC1CN(C(=O)c2ccc(C(=O)N3C[C@@H](C(=O)N[C@H]4C[C@@H]4c4ccccc4)[C@H](C(=O)N[C@H]4C[C@@H]4c4ccccc4)C3)cc2)C[C@H]1OCCCCCCCC (some centres unmarked) [Compound 020] | > 1000 nM
O=C(N[C@H]1C[C@@H]1c1ccccc1)[C@@H]1CN(C(=O)C23CC(C(=O)N4C[C@@H](C(=O)N[C@H]5C[C@@H]5c5ccccc5)[C@H](C(=O)N[C@H]5C[C@@H]5c5ccccc5)C4)(C2)C3)C[C@H]1C(=O)N[C@H]1C[C@@H]1c1ccccc1 [Compound 068] | > 1000 nM
CCCCCCCC(=O)N1CC(=O)N(Cc2ccc(C(=O)N3C[C@@H](C(=O)N[C@H]4C[C@@H]4c4ccccc4)[C@H](C(=O)N[C@H]4C[C@@H]4c4ccccc4)C3)cc2)C[C@@H]1C(=O)NCCCCCC [Compound 074, (3S,4S)-1-(4-(((R)-5-(hexylcarbamoyl)-4-octanoyl-2-oxopiperazin-1-yl)methyl)benzoyl)-N3,N4-bis((1S,2R)-2-phenylcyclopropyl)pyrrolidine-3,4-dicarboxamide] | 51 to 350 nM
CCCCCCNC(=O)[C@@H]1CN(C(=O)c2ccc(C(=O)N3C[C@@H](C(=O)N[C@H]4C[C@@H]4c4ccccc4)[C@H](C(=O)N[C@H]4C[C@@H]4c4ccccc4)C3)cc2)C[C@H]1C(=O)NCCCCCC [Compound 035] | 0.1 to 50 nM
CCCCCCCCCCCCCCNC(=O)C1CCN(C(=O)c2ccc(C(=O)N3C[C@@H](C(=O)N[C@H]4C[C@@H]4c4ccccc4)[C@H](C(=O)N[C@H]4C[C@@H]4c4ccccc4)C3)cc2)CC1 [Compound 010] | > 1000 nM

Same assay, conditions: HEK-Blue TLR2 reporter cells, agonist mode; average of all runs (Table 4)

Compound | EC50
CCCCCCCC[C@@H]1CN(C(=O)c2ccc(C(=O)N3C[C@@H](C(=O)N[C@H]4C[C@@H]4c4ccccc4)[C@H](C(=O)N[C@H]4C[C@@H]4c4ccccc4)C3)cc2)C[C@H]1C(=O)NCCCCCC (racemic) [Compound 085, (3S,4S)-1-(4-((3S*,4S*)-3-(hexylcarbamoyl)-4-octylpyrrolidine-1-carbonyl)benzoyl)-N3,N4-bis((1S,2R)-2-phenylcyclopropyl)pyrrolidine-3,4-dicarboxamide] | 0.1 to 50 nM
CCCCCCCC(=O)N1CCCN(C(=O)c2cccc(C(=O)N3C[C@@H](C(=O)N[C@H]4C[C@@H]4c4ccccc4)[C@H](C(=O)N[C@H]4C[C@@H]4c4ccccc4)C3)c2)C[C@@H]1C(=O)NCCCCCC (single isomer, unassigned) [Compound 191] | 351 to 1000 nM
CCCCCCCC[C@H]1CN(C(=O)c2ccc(C(=O)N3C[C@@H](C(=O)N[C@H]4C[C@@H]4c4ccccc4)[C@H](C(=O)N[C@H]4C[C@@H]4c4ccccc4)C3)cc2)C[C@H]1C(=O)NCCCCCC (relative stereo) [Compound 086, (3S,4S)-1-(4-((3S*,4R*)-3-(hexylcarbamoyl)-4-octylpyrrolidine-1-carbonyl)benzoyl)-N3,N4-bis((1S,2R)-2-phenylcyclopropyl)pyrrolidine-3,4-dicarboxamide] | > 1000 nM
CCCCCCCCCC(=O)N[C@@H](Cc1nc(-c2ccc(C(=O)N3C[C@@H](C(=O)N[C@H]4C[C@@H]4c4ccccc4)[C@H](C(=O)N[C@H]4C[C@@H]4c4ccccc4)C3)cc2)no1)C(=O)NCCCCCC [Compound 249, (3S,4S)-1-(4-(5-((S)-2-decanamido-3-(hexylamino)-3-oxopropyl)-1,2,4-oxadiazol-3-yl)benzoyl)-N3,N4-bis((1S,2R)-2-phenylcyclopropyl)pyrrolidine-3,4-dicarboxamide] | > 1000 nM
CCCCCCCO[C@H]1CN(C(=O)c2ccc(C(=O)N3C[C@@H](C(=O)N[C@H]4C[C@@H]4c4ccccc4)[C@H](C(=O)N[C@H]4C[C@@H]4c4ccccc4)C3)cc2)C[C@@H]1C(=O)NCCCCCC (relative stereo) [Compound 113, (3S,4S)-1-(4-((3R*,4S*)-3-(heptyloxy)-4-(hexylcarbamoyl)pyrrolidine-1-carbonyl)benzoyl)-N3,N4-bis((1S,2R)-2-phenylcyclopropyl)pyrrolidine-3,4-dicarboxamide] | 51 to 350 nM
CCCCCCCCCCCCCNC(=O)N[C@@H]1CN(C(=O)c2ccc(C(=O)N3C[C@@H](C(=O)N[C@H]4C[C@@H]4c4ccccc4)[C@H](C(=O)N[C@H]4C[C@@H]4c4ccccc4)C3)cc2)C[C@@H]1OC [Compound 208, (3S,4S)-1-(4-((3S,4R)-3-methoxy-4-(3-tridecylureido)pyrrolidine-1-carbonyl)benzoyl)-N3,N4-bis((1S,2R)-2-phenylcyclopropyl)pyrrolidine-3,4-dicarboxamide] | 0.1 to 50 nM
CCCCCCNC(=O)[C@H](CNC(=O)c1ccc(C(=O)N2C[C@@H](C(=O)N[C@H]3C[C@@H]3c3ccccc3)[C@H](C(=O)N[C@H]3C[C@@H]3c3ccccc3)C2)cc1)NC(=O)NCc1ccc(F)cc1 [Compound 186, (3S,4S)-1-(4-(((S)-2-(3-(4-fluorobenzyl)ureido)-3-(hexylamino)-3-oxopropyl)carbamoyl)benzoyl)-N^3,N^4-bis((1S,2R)-2-phenylcyclopropyl) pyrrolidine-3,4-dicarboxamide] | 0.1 to 50 nM
CCCCCCCCCCCCNC(=O)N[C@H]1CN(C(c2ccc(C(=O)N3C[C@@H](C(=O)N[C@H]4C[C@@H]4c4ccccc4)[C@H](C(=O)N[C@H]4C[C@@H]4c4ccccc4)C3)cc2)C(F)(F)F)C[C@@H]1OC (single isomer, unassigned) [Compound 232, (3S,4S)-1-(4-((R*)-1-((3S,4S)-3-(3-dodecylureido)-4-methoxypyrrolidin-1-yl)-2,2,2-trifluoroethyl)benzoyl)-N3,N4-bis((1S,2R)-2-phenylcyclopropyl)pyrrolidine-3,4-dicarboxamide] | 0.1 to 50 nM
CCCCCCCCCC(=O)N[C@@H](COC(=O)Nc1ccc(C(=O)N2C[C@@H](C(=O)N[C@H]3C[C@@H]3c3ccccc3)[C@H](C(=O)N[C@H]3C[C@@H]3c3ccccc3)C2)cc1)C(=O)NCCCCCC [Compound 239, (S)-2-decanamido-3-(hexylamino)-3-oxopropyl (4-((3S,4S)-3,4-bis(((1S,2R)-2-phenylcyclopropyl)carbamoyl)pyrrolidine-1-carbonyl)phenyl)carbamate] | 0.1 to 50 nM
CCCCCCCC[C@@H]1CN(C(=O)c2ccc(C(=O)N3C[C@@H](C(=O)N[C@H]4C[C@@H]4c4ccccc4)[C@H](C(=O)N[C@H]4C[C@@H]4c4ccccc4)C3)cc2)C[C@H]1C(=O)NCCCCCC (single isomer, unassigned) [Compound 111] | 0.1 to 50 nM
CO[C@H]1CN(C(=O)c2ccc(C(=O)N3C[C@@H](C(=O)N[C@H]4C[C@@H]4c4ccccc4)[C@H](C(=O)N[C@H]4C[C@@H]4c4ccccc4)C3)cc2)C[C@@H]1NC(=O)NCCc1ccc(F)cc1 [Compound 182, (3S,4S)-1-(4-((3S,4S)-3-(3-(4-fluorophenethyl)ureido)-4-methoxypyrrolidine-1-carbonyl)benzoyl)-N3,N4-bis((1S,2R)-2-phenylcyclopropyl)pyrrolidine-3,4-dicarboxamide] | > 1000 nM
CCCCCCCCCCCCCCNC(=O)C1CC(=O)N(Cc2ccc(C(=O)N3C[C@@H](C(=O)N[C@H]4C[C@@H]4c4ccccc4)[C@H](C(=O)N[C@H]4C[C@@H]4c4ccccc4)C3)cc2)C1 (stereo partly drawn) [Compound 100, (3S,4S)-1-(4-((2-oxo-4-(tetradecylcarbamoyl)pyrrolidin-1-yl)methyl)benzoyl)-N3,N4-bis((1S,2R)-2-phenylcyclopropyl)pyrrolidine-3,4-dicarboxamide] | > 1000 nM
CCCCCCCCCC(=O)N[C@@H](CN1C(=O)c2ccc(C(=O)N3C[C@@H](C(=O)N[C@H]4C[C@@H]4c4ccccc4)[C@H](C(=O)N[C@H]4C[C@@H]4c4ccccc4)C3)cc2C1=O)C(=O)NCCCCCC [Compound 240, (3S,4S)-1-(2-((S)-2-decanamido-3-(hexylamino)-3-oxopropyl)-1,3-dioxoisoindoline-5-carbonyl)-N3,N4-bis((1S,2R)-2-phenylcyclopropyl)pyrrolidine-3,4-dicarboxamide] | > 1000 nM
CCCCCCCC[C@H]1CN(C(=O)c2ccc(C(=O)N3C[C@@H](C(=O)N[C@H]4C[C@@H]4c4ccccc4)[C@H](C(=O)N[C@H]4C[C@@H]4c4ccccc4)C3)cc2)C[C@@H]1C(=O)NCCCCCC (single isomer, unassigned) [Compound 112] | 51 to 350 nM
CCCCCCCCCC(=O)N[C@@H](CN1Cc2cc(C(=O)N3C[C@@H](C(=O)N[C@H]4C[C@@H]4c4ccccc4)[C@H](C(=O)N[C@H]4C[C@@H]4c4ccccc4)C3)ccc2C1=O)C(=O)NCCCCCC [Compound 242, (3S,4S)-1-(2-((S)-2-decanamido-3-(hexylamino)-3-oxopropyl)-1-oxoisoindoline-5-carbonyl)-N3,N4-bis((1S,2R)-2-phenylcyclopropyl)pyrrolidine-3,4-dicarboxamide] | 51 to 350 nM
CCCCCCCCCNC(=O)[C@@H]1CN(C(=O)c2ccc(C(=O)N3C[C@@H](C(=O)N[C@H]4C[C@@H]4c4ccccc4)[C@H](C(=O)N[C@H]4C[C@@H]4c4ccccc4)C3)cc2)CCN1C(C)=O [Compound 257, (3S,4S)-1-(4-((S)-4-acetyl-3-(nonylcarbamoyl)piperazine-1-carbonyl)benzoyl)-N3,N4-bis((1S,2R)-2-phenylcyclopropyl)pyrrolidine-3,4-dicarboxamide] | 351 to 1000 nM
CCCCCCCCCCCCCCS(=O)(=O)N[C@@H]1CCN(C(=O)c2ccc(C(=O)N3C[C@@H](C(=O)N[C@H]4C[C@@H]4c4ccccc4)[C@H](C(=O)N[C@H]4C[C@@H]4c4ccccc4)C3)cc2)C1 [Compound 083, (3S,4S)—N3,N4-bis((1S,2R)-2-phenylcyclopropyl)-1-(4-((R)-3-(tetradecylsulfonamido)pyrrolidine-1-carbonyl)benzoyl)pyrrolidine-3,4-dicarboxamide] | > 1000 nM
